Data from KR20180087157A, “Blt 저해 활성을 갖는 화합물을 유효성분으로 포함하는 만성 폐쇄성 폐질환 예방 또는 치료용 약학적 조성물” (동국대학교 산학협력단, priority 2017, dated 2018).

Assays:
[1] = system: BLT2-expressing cells [BLT2가 발현된 세포 (CHO-BLT2 cells)]; assay: LPA-induced chemotactic motility (Transwell), CHO-BLT2; assay type: cell-based, human
[2] = system: BLT2-expressing cells [BLT2가 발현된 세포 (CHO-BLT2 cells)]; assay: LTB4-induced BLT2-dependent chemotactic motility (Transwell), CHO-BLT2; assay type: cell-based, human; conditions: for inhibition of chemotaxis: LTB4-stimulated CHO-BLT2 cells, result in words; for IC50: read-out: IC50 (50% inhibitory concentration), chemotaxis, CHO-BLT2 cells, LTB4-induced, serum-free; for inhibition at 10 µM: 10 μM pretreatment, compared with LTB4 (300 nM) treatment (DMSO+), read-out: chemotaxis inhibition
[3] = system: BLT1-expressing cells [BLT1이 발현된 세포 (CHO-BLT1)]; assay: LTB4-induced chemotactic motility (Transwell), CHO-BLT1; assay type: cell-based
[4] = system: BLT2-expressing cells [BLT2가 발현된 세포 (CHO-BLT2 cells)]; assay: Growth inhibition of BLT2-expressing cells (MTT cell viability); assay type: cell-based; conditions: for inhibition at 10 µM: 10 μM pretreatment 1 h, then LTB4 300 nM, 24 h, read-out: growth inhibition effect; for inhibition of BLT2-induced cell proliferation: 10 μM, LTB4 300 nM, result in words
[5] = system: inflammatory cells (neutrophils) [염증세포(호중구)]; assay: Inflammatory cell infiltration in BALF, cigarette smoke and LPS induced COPD mice; assay type: in vivo, mouse; conditions: C57BL/6N mice, oral 1 h before smoke, result in words
[6] = system: TNF-α; assay: TNF-α measurement in BALF, cigarette smoke and LPS induced COPD mice; assay type: in vivo, mouse; conditions: C57BL/6N mice, oral 1 h before smoke, result in words
[7] = system: IL-6; assay: IL-6 measurement in BALF, cigarette smoke and LPS induced COPD mice; assay type: in vivo, mouse; conditions: C57BL/6N mice, oral 1 h before smoke, result in words
[8] = system: reactive oxygen species (ROS); assay: ROS measurement in BALF, cigarette smoke and LPS induced COPD mice; assay type: in vivo, mouse; conditions: C57BL/6N mice, oral 1 h before smoke, result in words
[9] = system: cigarette smoke and lipopolysaccharide induced chronic obstructive pulmonary disease animal model [담배연기 및 지질다당류로 유발된 만성 폐쇄성 폐질환 동물 모델]; assay: H&E staining of lung tissue, cigarette smoke and LPS induced COPD mice; assay type: in vivo, mouse; conditions: C57BL/6N mice; for improvement of lung inflammation: cigarette smoke + LPS COPD model, overall result in words; for infiltration of inflammatory cells (H&E): cigarette smoke + LPS, 10 or 20 mg/kg oral, lung tissue, compared with COPD group, result in words
[10] = system: neutrophil elastase (NE); assay: NE measurement in BALF, cigarette smoke and LPS induced COPD mice; assay type: in vivo, mouse; conditions: C57BL/6N mice, oral 1 h before smoke, result in words
[11] = 10 μM pretreatment, compared with LTB4 (10 nM) treatment (DMSO+), result in words

Question: Which results are given for CCCCC(=O)N(Cc1ccc(-c2ccc(OCC(=O)O)cc2)cc1)c1cccc(F)c1 [AC-1074, 2-(4'-((N-(3-fluorophenyl)pentanamido)methyl)biphenyl-4-yloxy)acetic acid]?
Answer: change in chemotaxis ([1]; 10 μM pretreatment, compared with LPA (100 nM) treatment (DMSO+), result in words): 변화가 없음; inhibition of chemotaxis [2]: 현저히 저해; change in chemotaxis [3, 11]: 변화가 없음

Question: CCCCC(=O)N(Cc1ccc(-c2ccc(O)cc2)cc1)c1cccc(Br)c1 [AC-1632, N-(3-bromophenyl)-N-((4'-hydroxybiphenyl-4-yl)methyl)pentanamide] was tested. Which inhibition at 10 µM [4] did it give?
Answer: 78.7%

Question: And the “inhibition of BLT2-induced cell proliferation” value [4]?
Answer: 매우 우수한 효율로 억제

Question: For CCCCC(=O)N(Cc1ccc(-c2ccc(O)cc2)cc1)c1cccc(C(F)(F)F)c1 [AC-1635, N-((4'-hydroxybiphenyl-4-yl)methyl)-N-(3-(trifluoromethyl)phenyl)pentanamide], which inhibition at 10 µM [4] is on record?
Answer: 71.6%

Question: And the “inhibition of BLT2-induced cell proliferation” value [4]?
Answer: 매우 우수한 효율로 억제

Question: With COc1ccc(-c2ccc(CN(C(C)=O)c3cccc(F)c3)cc2)cc1 [AC-1646, N-(3-fluorophenyl)-N-((4'-methoxybiphenyl-4-yl)methyl)acetamide] as the compound, how does the inhibition at 10 µM [4] read?
Answer: 72.1%

Question: And the “inhibition of BLT2-induced cell proliferation” value [4]?
Answer: 매우 우수한 효율로 억제

Question: For CCCCC(=O)N(Cc1ccc(-c2ccc(C(=O)N3CCN(C(C)C)CC3)cc2)cc1)c1ccc(F)cc1 [AC-1650, N-(4-fluorophenyl)-N-((4'-(4-isopropylpiperazine-1-carbonyl)biphenyl-4-yl)methyl)pentanamide], which inhibition at 10 µM [4] is on record?
Answer: 82.2%

Question: And the “inhibition of BLT2-induced cell proliferation” value [4]?
Answer: 매우 우수한 효율로 억제

Question: Which results are given for CCCCC(=O)N(CC#Cc1ccc(C(=O)N2CCN(C)CC2)cc1)c1ccccc1 [LMT-692, N-(3-(4-(4-methylpiperazine-1-carbonyl)phenyl)prop-2-ynyl)-N-phenylpentanamide]?
Answer: inhibition of BLT2-induced cell proliferation [4]: 매우 우수한 효율로 억제; IC50 ([2]; Homo sapiens): 7.57 µM; inhibition at 10 µM ([2]; Homo sapiens): 66%; inhibition of chemotaxis [2]: 현저히 저해; chemotaxis inhibition [3, 11]: 억제되지 않음

Question: How did the inhibition at 10 µM ([2]; Homo sapiens) turn out when CCCCC(=O)N(CC#Cc1ccc(C(=O)N2CCNCC2)cc1)c1ccccc1 [LMT-694, N-phenyl-N-(3-(4-(piperazine-1-carbonyl)phenyl)prop-2-ynyl)pentanamide] was run?
Answer: 90%

Question: What about the chemotaxis inhibition [3, 11] of the same compound?
Answer: 억제되지 않음

Question: With CCCCC(=O)N(CC#Cc1ccc(C(=O)N2CCN(C(C)C)CC2)cc1)c1ccccc1 [LMT-696, N-(3-(4-(4-isopropylpiperazine-1-carbonyl)phenyl)prop-2-ynyl)-N-phenylpentanamide] as the compound, how does the “inhibition of BLT2-induced cell proliferation” value [4] read?
Answer: 매우 우수한 효율로 억제

Question: What about the IC50 ([2]; Homo sapiens) of the same compound?
Answer: 2 µM

Question: And the inhibition at 10 µM ([2]; Homo sapiens)?
Answer: 70.3%

Question: And the inhibition of chemotaxis [2]?
Answer: 현저히 저해

Question: And the chemotaxis inhibition [3, 11]?
Answer: 억제되지 않음

Question: With CCCCC(=O)N(CC#Cc1cccc(C(=O)N2CCNCC2)c1)c1ccccc1 [LMT-837, N-phenyl-N-(3-(3-(piperazine-1-carbonyl)phenyl)prop-2-ynyl)pentanamide] as the compound, how does the inhibition at 10 µM [4] read?
Answer: 65%

Question: What about the “inhibition of BLT2-induced cell proliferation” value [4] of the same compound?
Answer: 매우 우수한 효율로 억제

Question: How did the inhibition at 10 µM [4] turn out when CCCCC(=O)N(CC#Cc1ccc(C(=O)N2CCN(C(C)C)CC2)cc1)c1ccc(F)cc1 [LMT-841, N-(4-fluorophenyl)-N-(3-(4-(4-isopropylpiperazine-1-carbonyl)phenyl)prop-2-ynyl)pentanamide] was run?
Answer: 60%

Question: And the “inhibition of BLT2-induced cell proliferation” value [4]?
Answer: 매우 우수한 효율로 억제

Question: With CCCCC(=O)N(CC#Cc1cccc(C(=O)N2CCN(C(C)C)CC2)c1)c1ccccc1 [LMT-842, N-(3-(3-(4-isopropylpiperazine-1-carbonyl)phenyl)prop-2-ynyl)-N-phenylpentanamide] as the compound, how does the inhibition at 10 µM [4] read?
Answer: 70%

Question: And the “inhibition of BLT2-induced cell proliferation” value [4]?
Answer: 매우 우수한 효율로 억제

Question: Which results are given for CCCCC(=O)N(CC#Cc1ccc(C(=O)N(CC)CC)cc1)c1ccccc1 [LMT-883, N,N-diethyl-4-(3-(N-phenylpentanamido)prop-1-ynyl)benzamide]?
Answer: inhibition at 10 µM [4]: 99%; inhibition of BLT2-induced cell proliferation [4]: 매우 우수한 효율로 억제

Question: Which results are given for CCCCC(=O)N(CC#Cc1ccc(C(=O)N2CCN(C(C)C)CC2)cc1)c1cccc(F)c1 [LMT-886, N-(3-fluorophenyl)-N-(3-(4-(4-isopropylpiperazine-1-carbonyl)phenyl)prop-2-ynyl)pentanamide]?
Answer: infiltration of inflammatory cells (neutrophils) [5]: 유의적으로 감소; TNF-α production [6]: 현저히 감소; inhibition at 10 µM [4]: 99%; inhibition of BLT2-induced cell proliferation [4]: 매우 우수한 효율로 억제; IL-6 production [7]: 현저히 감소; ROS production [8]: 유의적으로 감소; improvement of lung inflammation [9]: 폐의 염증을 개선하는 효능; infiltration of inflammatory cells (H&E) [9]: 감소; NE production [10]: 유의적으로 감소

Question: For CCCCC(=O)N(CC#Cc1ccc(C(=O)O)cc1)c1ccccc1 [LMT-1013, 4-(3-(N-phenylpentanamido)prop-1-yn-1-yl)benzoic acid], which “infiltration of inflammatory cells (neutrophils)” value [5] is on record?
Answer: 유의적으로 감소

Question: What about the TNF-α production [6] of the same compound?
Answer: 현저히 감소

Question: What about the “inhibition of BLT2-induced cell proliferation” value [4] of the same compound?
Answer: 매우 우수한 효율로 억제

Question: What about the IC50 ([2]; Homo sapiens) of the same compound?
Answer: 0.0624 µM

Question: And the inhibition of chemotaxis [2]?
Answer: 현저히 저해

Question: What about the IL-6 production [7] of the same compound?
Answer: 현저히 감소

Question: What about the ROS production [8] of the same compound?
Answer: 유의적으로 감소

Question: And the IC50 ([3]; read-out: IC50 (50% inhibitory concentration), chemotaxis, CHO-BLT1 cells, LTB4-induced, serum-free)?
Answer: ≥ 10 µM

Question: And the “improvement of lung inflammation” value [9]?
Answer: 폐의 염증을 개선하는 효능

Question: And the “infiltration of inflammatory cells (H&E)” value [9]?
Answer: 감소

Question: What about the NE production [10] of the same compound?
Answer: 유의적으로 감소

Question: Which results are given for CCCCC(=O)N(CC#Cc1ccc(C(=O)NCCN(C)C)cc1)c1ccccc1 [LMT-1016, N-(2-(dimethylamino)ethyl)-4-(3-(N-phenylpentanamido)prop-1-yn-1-yl)benzamide]?
Answer: inhibition at 10 µM [4]: 99%; inhibition of BLT2-induced cell proliferation [4]: 매우 우수한 효율로 억제

Question: Which inhibition at 10 µM [4] does the source give for CCCCC(=O)N(CC#Cc1ccc(C(=O)NC(C)C(=O)OC)cc1)c1ccccc1 (centres unmarked) [LMT-1018, methyl 2-(4-(3-(N-phenylpentanamido)prop-1-yn-1-yl)benzamido)propanoate] here?
Answer: 71.6%

Question: What about the “inhibition of BLT2-induced cell proliferation” value [4] of the same compound?
Answer: 매우 우수한 효율로 억제

Question: With CCCCC(=O)N(CC#Cc1ccc(C(=O)NC(C)C(=O)O)cc1)c1ccccc1 (centres unmarked) [LMT-1019, 2-(4-(3-(N-phenylpentanamido)prop-1-yn-1-yl)benzamido)propanoic acid] as the compound, how does the inhibition at 10 µM [4] read?
Answer: 99%

Question: What about the “inhibition of BLT2-induced cell proliferation” value [4] of the same compound?
Answer: 매우 우수한 효율로 억제

Question: How did the fold induction at 0.1 µM ([1]; Homo sapiens, 3 h, LPA 100 nM (DMSO+) compared with ethanol (DMSO-), read-out: increase in cell chemotaxis) turn out when CCCCCCCC/C=C\CCCCCCCC(=O)OC[C@@H](O)COP(=O)(O)O [LPA, lysophosphatidic acid, reference compound] was run?
Answer: 3.4

Question: Which fold induction at 0.3 µM ([2]; Homo sapiens, 3 h, LTB4 300 nM (DMSO+) compared with ethanol (DMSO-), read-out: increase in cell chemotaxis) does the source give for CCCCC/C=C\C[C@@H](O)/C=C/C=C/C=C\[C@@H](O)CCCC(=O)O [LTB4, Leukotriene B4, reference compound] here?
Answer: 2.4

Question: What about the “increase in cell chemotaxis” value ([2]; LTB4 300 nM (DMSO+) compared with ethanol (DMSO-), 180 min, 0.3 µM) of the same compound?
Answer: 2.9 fold

Question: What about the fold induction at 0.01 µM ([3]; 3 h, LTB4 10 nM (DMSO+) compared with ethanol (DMSO-), read-out: increase in cell chemotaxis) of the same compound?
Answer: 2.2

Question: And the “increase in cell chemotaxis” value ([3]; cho-blt1 cells, 3 h, 0.01 µM)?
Answer: 2.8 fold
